Four molecules from patent US12398154B2, “Azaquinazoline pan-KRas inhibitors” (Mirati Therapeutics, Inc., priority 2020, dated 2025) can be followed below.

Read-outs that look alike come from different tables or passages of the source.

The target of one assay is T1, KRas G13D (Homo sapiens, UniProt P01116, G13D).
T1 construct: Biotinylated KRas (corresponding to amino acids 1-169, produced at Accelegan Inc.); biotin (biotinylated); purchased Accelegan Inc
The assay is described as follows: KRas binding assay (TR-FRET displacement).

A further assay has as its target T2, KRas Q61H (Homo sapiens, UniProt P01116, Q61H).
T2 construct: Biotinylated KRas (corresponding to amino acids 1-169, produced at Accelegan Inc.); biotin (biotinylated); purchased Accelegan Inc
In words: KRas binding assay (TR-FRET displacement). Background: Time-resolved FRET reads energy transfer from a long-lived donor to a nearby acceptor.

In assay [1] the test system is phospho-ERK in A549 (G12S) cells. The assay is described as follows: Inhibition of KRas-mediated phosphorylation of ERK (in-cell western). The format is cell-based. The settings on record: Homo sapiens, 3 hours compound, phospho-ERK normalized to GAPDH. In short, it runs like this: (§1)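 IC50 came from 4-parameter dose-response fits of phospho-ERK (Thr202/Tyr204)/GAPDH signal, expressed as % DMSO control. Compounds were applied for 3 h at 0.5% DMSO before fixation, methanol permeabilization and antibody imaging by in-cell western.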

The subject of assay [2] is phospho-ERK in AsPC-1 (G12D) cells. The description is as above. The settings on record: 3 hours compound, phospho-ERK normalized to GAPDH. The format is cell-based. In short, it runs like this: as §1
The test system of assay [3] is phospho-ERK in HCT116 (G13D) cells. Described as above. The assay is classed as cell-based. The settings on record: Homo sapiens, HCT-116, 3 hours compound, phospho-ERK normalized to GAPDH. The essentials: as §1
Assay [4] concerns phospho-ERK in MKN1 (WTdep) cells. The description is as above. The assay is classed as cell-based. The conditions noted are these: Homo sapiens, MKN-1, 3 hours compound, phospho-ERK normalized to GAPDH. The essentials:
as §1

For assay [5], the system named is phospho-ERK in NCI-H358 (G12C) cells. The assay is described as above. The assay is classed as cell-based. The conditions noted are these: Homo sapiens, 3 hours compound, phospho-ERK normalized to GAPDH. In short, it runs like this:
as §1

Assay [6] relates to phospho-ERK in NCI-H460 (Q61H) cells. The assay is described as above. The format is cell-based. The settings on record: 3 hours compound, phospho-ERK normalized to GAPDH. The essentials:
as §1

The test system of assay [7] is phospho-ERK in NCI-H727 (G12V) cells. The assay is described as above. The format is cell-based. The settings on record: 3 hours compound, phospho-ERK normalized to GAPDH. In short, it runs like this:
as §1

Assay [8] has as its system phospho-ERK in PSN-1 (G12R) cells. The description is as above. The conditions noted are these: Homo sapiens, PSN1, 3 hours compound, phospho-ERK normalized to GAPDH. The format is cell-based. In short, it runs like this: as §1
The next assay concerns the target KRas G12D (Homo sapiens, UniProt P01116, G12D). The assay is described as follows: biochemical.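 Further: TR-FRET displacement binding assay on KRas, read after a one-hour incubation at room temperature, IC50 fitted from percent-of-control values.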
Assay [9] deals with T3, KRas G12V (Homo sapiens, UniProt P01116, G12V). In words: biochemical.
T3 sequence (P01116 1-169 isoform P01116-2 G12V): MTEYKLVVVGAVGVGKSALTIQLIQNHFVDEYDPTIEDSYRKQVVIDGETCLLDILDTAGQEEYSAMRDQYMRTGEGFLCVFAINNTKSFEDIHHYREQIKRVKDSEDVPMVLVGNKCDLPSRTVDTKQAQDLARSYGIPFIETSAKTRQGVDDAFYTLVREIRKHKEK
Assay [10] concerns the target T4, KRas G12R (Homo sapiens, UniProt P01116, G12R). In words: biochemical.
The next assay deals with KRas G12A (Homo sapiens, UniProt P01116, G12A). The assay is described as follows: biochemical.
Sequence of KRas G12A (P01116 1-169 isoform P01116-2 G12A): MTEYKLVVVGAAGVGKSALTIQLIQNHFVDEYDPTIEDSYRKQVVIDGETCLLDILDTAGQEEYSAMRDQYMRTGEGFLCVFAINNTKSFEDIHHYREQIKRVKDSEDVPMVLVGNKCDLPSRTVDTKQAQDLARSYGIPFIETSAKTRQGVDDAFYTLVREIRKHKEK
The next assay addresses KRas G12S (Homo sapiens, UniProt P01116, G12S). The assay is described as follows: biochemical.
The target of another assay is KRas G12C (Homo sapiens, UniProt P01116, G12C). In words: biochemical.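 Further: binding to KRas assessed by TR-FRET displacement after one hour incubation at room temperature, potency fitted from percent-of-control values.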
Sequence of KRas G12C (P01116 1-169 isoform P01116-2 G12C): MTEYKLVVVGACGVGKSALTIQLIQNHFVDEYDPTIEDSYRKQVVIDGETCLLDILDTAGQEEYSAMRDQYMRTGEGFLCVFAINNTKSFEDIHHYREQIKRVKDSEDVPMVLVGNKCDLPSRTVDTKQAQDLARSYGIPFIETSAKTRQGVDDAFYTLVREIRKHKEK
In a further assay the target is KRas WT (Homo sapiens, UniProt P01116). In words: biochemical.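 Further: binding to KRas read as TR-FRET displacement after a one-hour room-temperature incubation, IC50 derived from percent-of-control values.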
Sequence of KRas WT (P01116 1-169 isoform P01116-2): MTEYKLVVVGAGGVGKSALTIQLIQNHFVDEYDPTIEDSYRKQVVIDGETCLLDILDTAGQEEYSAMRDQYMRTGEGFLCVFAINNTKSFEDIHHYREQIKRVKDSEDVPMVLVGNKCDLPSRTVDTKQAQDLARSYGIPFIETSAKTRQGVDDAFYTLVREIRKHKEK
The test system of a further assay is pERK in MKN1 cells. In words: Inhibition of KRas phosphorylation of ERK (Cisbio HTRF pERK assay). The conditions noted are these: Homo sapiens, MKN-1, 3 h, read-out: Inhibition (HTRF IC50) of KRas-mediated Phosphorylation of ERK, MKN1.
For the next assay, the system named is pERK in PSN1 cells. The description is as above. The conditions noted are these: Homo sapiens, PSN1, 3 h, read-out: Inhibition (HTRF IC50) of KRas-mediated Phosphorylation of ERK, PSN1.
A further assay has as its system pERK in ASPC1 cells. The assay is described as above. The settings on record: Homo sapiens, ASPC1, read-out: Inhibition (HTRF IC50) of KRas-mediated Phosphorylation of ERK, AsPC-1.
Another assay deals with pERK in H727 cells. Described as above. The settings on record: Homo sapiens, NCI-H727, read-out: Inhibition (HTRF IC50) of KRas-mediated Phosphorylation of ERK, H727.
A further assay concerns pERK in A549 cells. The description is as above. The settings on record: Homo sapiens, A549, read-out: Inhibition (HTRF IC50) of KRas-mediated Phosphorylation of ERK, A549.
The next assay has as its system pERK in H460 cells. Described as above. The settings on record: Homo sapiens, NCI-H460, read-out: Inhibition (HTRF IC50) of KRas-mediated Phosphorylation of ERK, H460.
The next assay concerns pERK in HCT116 cells. Described as above. The settings on record: Homo sapiens, HCT-116, read-out: Inhibition (HTRF IC50) of KRas-mediated Phosphorylation of ERK, HCT116.
The test system of another assay is pERK in H358 cells. The description is as above. The settings on record: Homo sapiens, NCI-H358, read-out: Inhibition (HTRF IC50) of KRas-mediated Phosphorylation of ERK, H358.
Assay [11] has as its target T3, KRas G12V.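 Further: KRas binding measured by TR-FRET displacement at room temperature, IC50 fitted from percent of control values.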
Assay [12] has as its target T4, KRas G12R.

Sequence of KRas G12D (P01116 1-169 isoform P01116-2 G12D): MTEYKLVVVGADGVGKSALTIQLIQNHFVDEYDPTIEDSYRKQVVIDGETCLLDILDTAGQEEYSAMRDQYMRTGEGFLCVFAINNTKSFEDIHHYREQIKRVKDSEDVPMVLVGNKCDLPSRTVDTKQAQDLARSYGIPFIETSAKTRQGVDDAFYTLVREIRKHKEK
T4 sequence (P01116 1-169 isoform P01116-2 G12R): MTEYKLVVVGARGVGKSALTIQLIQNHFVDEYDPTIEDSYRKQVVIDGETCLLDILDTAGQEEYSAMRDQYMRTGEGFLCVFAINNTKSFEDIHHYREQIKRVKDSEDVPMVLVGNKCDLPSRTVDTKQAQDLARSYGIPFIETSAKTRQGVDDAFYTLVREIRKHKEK
T2 sequence (P01116 1-169 isoform P01116-2 Q61H): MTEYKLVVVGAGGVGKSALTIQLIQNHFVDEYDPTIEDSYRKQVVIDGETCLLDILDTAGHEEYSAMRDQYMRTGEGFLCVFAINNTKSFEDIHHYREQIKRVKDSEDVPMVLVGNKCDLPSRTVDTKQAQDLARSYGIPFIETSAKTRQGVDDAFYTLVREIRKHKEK
Sequence of KRas G12S (P01116 1-169 isoform P01116-2 G12S): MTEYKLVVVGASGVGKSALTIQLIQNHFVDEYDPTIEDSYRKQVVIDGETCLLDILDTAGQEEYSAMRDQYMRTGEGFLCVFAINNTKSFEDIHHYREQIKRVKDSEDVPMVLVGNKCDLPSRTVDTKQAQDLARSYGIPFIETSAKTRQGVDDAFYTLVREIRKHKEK
T1 sequence (P01116 1-169 isoform P01116-2 G13D): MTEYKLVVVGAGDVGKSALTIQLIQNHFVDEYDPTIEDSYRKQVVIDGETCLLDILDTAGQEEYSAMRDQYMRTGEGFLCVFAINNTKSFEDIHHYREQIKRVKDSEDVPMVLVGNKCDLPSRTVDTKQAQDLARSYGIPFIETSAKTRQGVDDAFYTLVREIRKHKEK

`C#Cc1c(F)ccc2cc(O)cc(-c3ncc4c(N5CCC[C@@](C)(O)C5)nc(OC[C@@]56CCCN5C[C@H](F)C6)nc4c3F)c12` [Example 13]: the IC50 was at most 2 nM on KRas G13D; at most 2 nM on KRas Q61H; 140 nM in [1]; 18 nM in assay [2] (Homo sapiens, ASPC1, 3 h); 42 nM in assay [3]; 10 nM in assay [4]. Further, the IC50 is 11 nM in [5]; 13 nM in assay [6] (Homo sapiens, NCI-H460, 3 h); 44 nM in assay [7] (Homo sapiens, NCI-H727, 3 h); 773 nM in [8]; at most 0.002 µM on KRas G12D; at most 0.002 µM at KRas G12V [9]. Further, the IC50 was at most 0.002 µM on KRas G12R [10]; at most 0.002 µM at KRas G12A; at most 0.002 µM against KRas G12S; at most 0.002 µM against KRas G12C; at most 0.002 µM at KRas WT; 0.005 µM with pERK in MKN1 cells. In addition, the IC50 in the assay with pERK in PSN1 cells came out at 1.09 µM; in the assay with pERK in ASPC1 cells, 0.004 µM; with pERK in H727 cells, 0.013 µM; in the assay with pERK in A549 cells, 0.043 µM; with pERK in H460 cells it was 0.027 µM; in the assay on pERK in HCT116 cells it was 0.033 µM.
Turning to `CCc1c(F)ccc2cc(O)cc(-c3ncc4c(N5CC6CC(O)C(C6)C5)nc(OC[C@@]56CCCN5C[C@H](F)C6)nc4c3F)c12` (stereo partly drawn) [Example 82], the IC50 in assay [1] came to 25 nM; in assay [2] (Homo sapiens, ASPC1, 3 h), 18 nM; in [3], 216 nM; in assay [4], 10 nM; in assay [5], 3 nM; in assay [6] (Homo sapiens, NCI-H460, 3 h), 180 nM. Besides, the IC50 is 65 nM in [7] (Homo sapiens, NCI-H727, 3 h); 1740 nM in [8]; at most 0.002 µM at KRas G12D; at most 0.002 µM against KRas G12V [9]; at most 0.002 µM against KRas G12R [10]; 0.006 µM with pERK in MKN1 cells. Also, the IC50 with pERK in PSN1 cells worked out at 2.33 µM; with pERK in ASPC1 cells, 0.015 µM; in the assay on pERK in H727 cells, 0.016 µM; with pERK in A549 cells it was 0.015 µM; with pERK in H460 cells it was 0.022 µM; in the assay on pERK in HCT116 cells, 0.106 µM. Also, in the assay on pERK in H358 cells, the IC50 was found to be 0.01 µM.
`CCc1c(F)ccc2cc(O)cc(-c3ncc4c(N5CCC[C@@](C)(O)C5)nc(OC[C@@H]5CCCN5C)nc4c3F)c12` [Example 28, (3R)-1-[7-(8-ethyl-7-fluoro-3-hydroxy-1-naphthyl)-8-fluoro-2-[[(2S)-1-methylpyrrolidin-2-yl]methoxy]pyrido[4,3-d]pyrimidin-4-yl]-3-methyl-piperidin-3-ol]: the IC50 at KRas G13D came to 3 nM; at KRas Q61H, 3 nM; in [1] it was 523 nM; in assay [2] (Homo sapiens, ASPC1, 3 h) it was 78 nM; in assay [3], 153 nM; in [4], 24 nM. In addition, the IC50 is 60 nM in assay [5]; 54 nM in assay [6] (Homo sapiens, NCI-H460, 3 h); 308 nM in assay [7] (Homo sapiens, NCI-H727, 3 h); at least 10000 nM in [8]; 0.003 µM against KRas G12D; at most 0.002 µM against KRas G12V [9]. Also, the half-maximal inhibitory concentration (IC50) at KRas G12R [10] was 0.003 µM; against KRas G12A it was at most 0.002 µM; at KRas G12S, at most 0.002 µM; against KRas G12C it was at most 0.002 µM; against KRas WT, 0.003 µM; in the assay with pERK in MKN1 cells, 0.021 µM. Besides, the IC50 in the assay on pERK in PSN1 cells was found to be 7.25 µM; in the assay on pERK in ASPC1 cells it was 0.02 µM; in the assay on pERK in H727 cells, 0.159 µM; in the assay with pERK in A549 cells, 0.156 µM; in the assay with pERK in H460 cells, 0.101 µM; in the assay with pERK in HCT116 cells, 0.155 µM.
For the molecule `CCc1c(F)ccc2cc(O)cc(-c3ncc4c(N5C[C@H](O)C[C@@H](O)C5)nc(OC[C@@]56CCCN5C[C@H](F)C6)nc4c3F)c12` [Example 296, (3R,5R)-1-(7-(8-ethyl-7-fluoro-3-hydroxynaphthalen-1-yl)-8-fluoro-2-(((2R,7aS)-2-fluorohexahydro-1H-pyrrolizin-7a-yl)methoxy)pyrido[4,3-d]pyrimidin-4-yl)piperidine-3,5-diol], the IC50 is 2200 nM in assay [2]; 619 nM in [6]; 2080 nM in assay [7]; at most 0.002 µM against KRas G12V [11]; at most 0.002 µM against KRas G12R [12]; 0.004 µM against KRas G12D. Besides, the IC50 was 0.053 µM in the assay on pERK in MKN1 cells and at least 10 µM in the assay with pERK in PSN1 cells.

The IC50 is the point on the concentration scale where inhibition reaches its midpoint.
